Reference: patent US11459586B2, “Methods for increasing efficiency of nuclease-mediated gene editing in stem cells” (President and Fellows of Harvard College, priority 2016, dated 2022)

Tested on: human iPSC
Assay: simultaneous multiplex mThy1 and mCD147 gene replacement in hiPSC
Format: cell-based
Excerpt: FIGS. 5A-B. Bcl-2 overexpression enables double homozygous targeted gene replacement in human iPSC. FIG. 5A. Mouse Thy1 gene targeting scheme (left). Mouse CD147 gene targeting scheme (right): Two sgRNAs target human BSG (CD147) within intron 1 (Left) or after the polyadenylation site (Right). The mouse CD147 targeting vector plasmid contains mCD147 coding exons 2-7, flanked by hCD147 homology arms outside the sgRNA sites—coding exon 1 (which encodes the signal peptide) is retained but the sgRNA sites are disrupted. FIG. 5B. Plain human iPSC were transfected with 1 μg each of the mThy1 and mCD147 targeting vectors together with a total of 2 μg “Cas9 only sgRNA” or “Cas9 Bcl-2 sgRNA” expression plasmid. Cells were transfected with the following sgRNA combinations: Thy1 Left and CD147 Left, Thy1 Right and CD147 Right, all four Thy1 and CD147 sgRNAs, or Negative sgRNA #1. Nine days later, cells were analyzed by flow cytometry for mThy1, hThy1, mCD147, and hCD147 expression. Upper two plots show the percent of Thy1 or CD147 gene replacement as gated on all live single iPSC. Lower four plots show the percent of CD147 gene replacement as gated on the Thy1 gene targeting quadrants. Results are representative of four independent experiments.
The U6 promoter-sgRNA (for each sgRNA sequence) was cloned into the EF1α promoter-Cas9 nuclease or EF1α promoter-Cas9 nuclease-IRES-Bcl-2 expression plasmids to form the “Cas9 only sgRNA” or “Cas9 Bcl-2 sgRNA” plasmids used in Examples 6 and 7.
Previously, low gene targeting frequencies in hiPSC could be overcome by clever enrichment or selection schemes. However, for simultaneous multiplex gene targeting, a higher absolute frequency is needed. […] Plain hiPSC were transfected with both mThy1 and mCD147 targeting vectors together with the “Cas9 only sgRNA” or “Cas9 Bcl-2 sgRNA” plasmids. Combinations of both Left sgRNAs, both Right sgRNAs, all four sgRNAs, or a negative control sgRNA were used. Cultures were then analyzed by flow cytometry for hThy1, mThy1, hCD147, and mCD147 expression. […] When cell populations were gated on homozygous mThy1 gene replacement (red) and then analyzed for mCD147 gene replacement, we found an enrichment of mCD147 events, rather than an independent assortment of gene editing outcomes. Likewise, when all four sgRNAs were transfected, the mThy1^−hThy1^− double negative population (blue) contained an enriched proportion of mCD147^−hCD147^− cells. Even considering an overall transfection rate of 60-70%, these enrichments indicate that hiPSC may be poised for either HR or NHEJ at various periods. With Bcl-2, the frequency of HR-mediated double homozygous gene replacements (mThy1^+hThy1^− mCD147^+hCD147^−) increased by an order of magnitude (Left sgRNAs: from 0.02% to 0.16%; Right sgRNAs: from 0.01% to 0.37%). […]

Bcl-2: B cell lymphoma 2 protein, anti-apoptotic, overexpressed from lentivirus or Cas9 plasmid
frequency of HR-mediated double homozygous gene replacements (mThy1+hThy1- mCD147+hCD147-) (Left sgRNAs, with Bcl-2 (from 0.02% without)): 0.16%
frequency of HR-mediated double homozygous gene replacements (mThy1+hThy1- mCD147+hCD147-) (Right sgRNAs, with Bcl-2 (from 0.01% without)): 0.37%
NHEJ-mediated quadruple-negative deletions (mThy1-hThy1- mCD147-hCD147-) (all four sgRNAs, with Bcl-2 (from 0.7% without)): 1.1%
gene editing frequencies (multiplex mThy1 and mCD147 targeting, every sgRNA combination): improved gene editing frequencies
